From patent US8008540B2, “Transgenic non-human animal for use in research models for studying Parkinson's disease” (Kampavata AB, priority 2004, dated 2011)
“Also recorded” adds a separate entry of the source.

System: homozygous knockout mice (+/DAT-cre; Tfam^loxP/Tfam^loxP)
Test: L-DOPA treatment, open field activity cages (locomotion and rearing)
Format: in vivo, mouse
Protocol: Open field activity was examined in automated activity cages. This consisted of Plexiglas boxes (35×35×18 cm) with a lower and a higher row of infrared sensitive photocells and a microcomputer registering interruption of photocell beams. Animals were tested during the light phase of the light-dark cycle, between 9:00 and 13:00 h. Locomotor activity was registered when animals interrupted the lower row of photocells and rearing was registered when the higher row was interrupted. Animals were individually placed gently in the open field arena and remained there during 60 min. Locomotion and rearing counts were registered every 10 min. For the L-DOPA treatment, spontaneous locomotion and rearing were measured in activity cages as above. Animals were then given i.p. injections of L-DOPA combined with the peripheral dopa decarboxylase inhibitor benzerazide (Madopark 20 mg/kg in PBS; Roche) or PBS and were then immediately put back into the activity cages for another 60 minutes of recording. The scoring of counts was given as mean+/−SEM. Statistical significance was tested using 2-way ANOVA analysis. The open field box was cleaned with 70% alcohol after each test.

[1] = 20 and 30 week old homozygous knockout mice, L-DOPA 20 mg/kg i.p. vs saline, 60 min recording

## N[C@@H](Cc1ccc(O)c(O)c1)C(=O)O [L-DOPA]
20 and 30 week old homozygous knockout mice
  motor performance: improved motor performance
[1]
  locomotion: increased locomotion
  rearing: increase in rearing was similar; also recorded: increase of rearing
Parkinson mouse model, L-DOPA treatment
  progressive movement disorder: partially reversed
Older (30 week old) homozygous knockout mice
  locomotor response, course over time: abruptly terminated
Younger (20 week old) homozygous knockout mice, identical L-DOPA dose
  locomotion response, younger vs older mice: more pronounced and longer lasting locomotion response; also recorded: greater locomotion response
